Assays:
[1] = target: T1, Urotensin-2 receptor (Homo sapiens, UniProt Q9UKP6); test: Displacement of europium-labeled urotensin-II from human urotensin-2 receptor expressed in HEK293 cells by TRF assay; assay type: cell-based
T1 sequence (Q9UKP6 whole entry): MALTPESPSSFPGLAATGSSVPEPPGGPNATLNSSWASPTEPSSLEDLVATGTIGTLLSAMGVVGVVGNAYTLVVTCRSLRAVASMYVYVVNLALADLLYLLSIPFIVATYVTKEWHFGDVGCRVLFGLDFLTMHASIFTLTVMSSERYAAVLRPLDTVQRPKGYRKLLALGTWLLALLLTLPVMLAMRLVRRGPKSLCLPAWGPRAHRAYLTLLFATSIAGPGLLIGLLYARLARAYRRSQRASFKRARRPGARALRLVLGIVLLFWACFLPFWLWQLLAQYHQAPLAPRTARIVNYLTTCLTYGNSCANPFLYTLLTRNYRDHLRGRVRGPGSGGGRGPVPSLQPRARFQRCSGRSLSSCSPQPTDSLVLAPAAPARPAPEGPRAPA

[2] = Metabolic stability in human liver microsomes after 30 mins; assay type: ADME; conditions: read-out: Stability
[3] = Metabolic stability in rat liver microsomes after 30 mins; assay type: ADME; conditions: read-out: Stability
[4] = Permeability of the compound by PAMPA assay; assay type: ADME; conditions: read-out: permeability
[5] = target: Voltage-gated inwardly rectifying potassium channel KCNH2 (Homo sapiens, UniProt Q12809); test: Inhibition of human ERG by patch clam assay
Voltage-gated inwardly rectifying potassium channel KCNH2, sequence (Q12809 whole entry): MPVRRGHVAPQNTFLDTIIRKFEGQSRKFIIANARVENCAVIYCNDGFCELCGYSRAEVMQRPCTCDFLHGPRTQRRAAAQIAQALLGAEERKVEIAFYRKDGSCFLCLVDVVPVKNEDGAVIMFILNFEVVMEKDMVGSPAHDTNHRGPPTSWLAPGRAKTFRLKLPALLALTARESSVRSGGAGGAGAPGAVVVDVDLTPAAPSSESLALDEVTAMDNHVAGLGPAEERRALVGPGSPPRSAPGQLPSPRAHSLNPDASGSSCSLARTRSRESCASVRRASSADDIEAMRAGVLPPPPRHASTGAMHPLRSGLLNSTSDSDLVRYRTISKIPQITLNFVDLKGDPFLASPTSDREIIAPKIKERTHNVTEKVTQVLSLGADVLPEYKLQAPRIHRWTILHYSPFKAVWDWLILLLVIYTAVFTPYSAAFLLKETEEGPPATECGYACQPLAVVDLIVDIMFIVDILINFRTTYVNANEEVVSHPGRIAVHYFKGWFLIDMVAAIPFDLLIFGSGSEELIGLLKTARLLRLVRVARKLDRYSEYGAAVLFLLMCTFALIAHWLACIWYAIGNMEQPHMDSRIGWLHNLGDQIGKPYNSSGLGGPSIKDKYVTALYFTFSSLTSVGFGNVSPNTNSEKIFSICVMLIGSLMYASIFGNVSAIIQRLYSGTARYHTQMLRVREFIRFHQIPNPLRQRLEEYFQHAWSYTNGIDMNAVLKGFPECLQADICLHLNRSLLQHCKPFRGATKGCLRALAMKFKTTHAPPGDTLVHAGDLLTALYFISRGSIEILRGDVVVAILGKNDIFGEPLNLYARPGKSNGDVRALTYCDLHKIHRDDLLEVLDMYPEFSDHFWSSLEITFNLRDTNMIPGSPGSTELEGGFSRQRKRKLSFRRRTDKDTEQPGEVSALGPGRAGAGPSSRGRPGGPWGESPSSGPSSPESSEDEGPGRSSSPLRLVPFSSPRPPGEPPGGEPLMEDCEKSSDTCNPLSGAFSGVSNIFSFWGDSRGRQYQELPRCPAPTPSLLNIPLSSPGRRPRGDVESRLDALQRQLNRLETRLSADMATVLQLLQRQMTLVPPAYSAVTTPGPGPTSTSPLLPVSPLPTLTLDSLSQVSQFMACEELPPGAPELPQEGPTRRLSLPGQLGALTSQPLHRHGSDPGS

[6] = target: CYP3A4 (Homo sapiens, UniProt P08684); test: Inhibition of CYP3A4 (unknown origin) at 10 uM; assay type: ADME
CYP3A4, sequence (P08684 whole entry): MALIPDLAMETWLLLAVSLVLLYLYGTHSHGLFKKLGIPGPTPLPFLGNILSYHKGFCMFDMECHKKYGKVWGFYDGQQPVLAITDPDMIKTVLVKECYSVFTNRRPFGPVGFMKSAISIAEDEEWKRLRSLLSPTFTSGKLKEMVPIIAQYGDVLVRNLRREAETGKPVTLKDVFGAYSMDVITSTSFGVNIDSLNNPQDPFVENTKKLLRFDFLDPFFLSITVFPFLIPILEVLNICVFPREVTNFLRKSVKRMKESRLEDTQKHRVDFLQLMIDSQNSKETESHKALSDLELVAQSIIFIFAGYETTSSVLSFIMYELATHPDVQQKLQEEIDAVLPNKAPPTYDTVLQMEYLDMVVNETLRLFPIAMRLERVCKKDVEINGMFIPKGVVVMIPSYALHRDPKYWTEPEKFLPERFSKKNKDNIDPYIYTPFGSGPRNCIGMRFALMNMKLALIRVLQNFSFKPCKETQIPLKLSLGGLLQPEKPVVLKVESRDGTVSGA

[7] = target: T2, Urotensin-2 receptor (Homo sapiens) (UniProt Q9UKP6); test: Displacement of europium-labeled urotensin-II from human urotensin-2 receptor expressed in HEK293 cells at 10 uM by TRF assay; assay type: cell-based
T2 sequence (whole entry): T1 sequence (Q9UKP6 whole entry)

SMILES	IC50 [1]	other results
Cc1cc(NC(=O)NCCN2CCC(O)(Cc3ccccc3)CC2)c2sccc2n1	0.026 µM	
O=C(NCCN1CCC(O)(Cc2ccc(F)cc2)CC1)Nc1ccnc2ccsc12	0.013 µM	remaining at 0.5 h [2]: 52%; remaining at 0.5 h [3]: 100%; Papp [4]: 0.027 ×10⁻⁶ cm/s; IC50 [5]: 5 µM; inhibition at 10 µM [6]: > 10%
O=C(NCCN1CCC(O)(Cc2ccccc2)CC1)Nc1cc(-c2ccccc2)nc2ccsc12		inhibition [7]: 25.4%
Cc1ccccc1CC1(O)CCN(CCNC(=O)Nc2ccnc3ccsc23)CC1	0.02 µM	
CCc1cc(NC(=O)NCCN2CCC(O)(Cc3ccccc3)CC2)c2sccc2n1	0.06 µM	
O=C(NCCN1CCC(O)(Cc2cccc(Br)c2)CC1)Nc1ccnc2ccsc12	0.042 µM	
Cn1ccc2nccc(NC(=O)NCCN3CCC(O)(Cc4ccccc4)CC3)c21	0.6 µM	
O=C(NCCN1CCC(O)(Cc2ccccc2)CC1)Nc1ccnc2c(Br)csc12	3.22 µM	
O=C(NCCN1CCC(O)(Cc2ccccc2)CC1)Nc1ccnc2ccoc12	0.45 µM	
O=C(NCCN1CCC(O)(Cc2ccccc2)CC1)Nc1cc(Cl)nc2ccsc12		inhibition [7]: 25.6%
Cc1ccc(CC2(O)CCN(CCNC(=O)Nc3ccnc4ccsc34)CC2)cc1	0.19 µM	
Cn1ccc2c(NC(=O)NCCN3CCC(O)(Cc4ccccc4)CC3)ccnc21	0.16 µM	
O=C(NCCN1CCC(O)(Cc2ccccc2)CC1)Nc1ccnc2sccc12	0.93 µM	
O=C(NCCN1CCC(O)(Cc2ccccc2Br)CC1)Nc1ccnc2ccsc12	0.02 µM	
Cc1csc2c(NC(=O)NCCN3CCC(O)(Cc4ccccc4)CC3)ccnc12	1.23 µM	
Cc1cc(NC(=O)NCCN2CCC(O)(Cc3ccccc3)CC2)c2cnn(C)c2n1	0.22 µM	
O=C(NCCN1CCC(O)(Cc2ccccc2)CC1)Nc1ccnc2ccsc12	0.036 µM	
Cn1cnc2c(NC(=O)NCCN3CCC(O)(Cc4ccccc4)CC3)ccnc21	2.14 µM	
Cc1cccc(CC2(O)CCN(CCNC(=O)Nc3ccnc4ccsc34)CC2)c1	0.14 µM	
O=C(NCCN1CCC(O)(Cc2ccccc2)CC1)Nc1ccnc2cc(-c3ccccc3)sc12		inhibition [7]: 47.3%
Cc1cc2nccc(NC(=O)NCCN3CCC(O)(Cc4ccccc4)CC3)c2s1	0.078 µM	

From ChEMBL document CHEMBL3351860, “Synthesis and SAR of thieno[3,2-b]pyridinyl urea derivatives as urotensin-II receptor antagonists” (Bioorg Med Chem Lett, 2014)
